Reference: patent US20080269161A1, “Compositions and Methods Relating to Mitochondrial Hyperpolarization in Neurological Disease” (priority 2005, published 2008)
“Also recorded” adds a separate entry of the source.

System: CA1 pyramidal neurons in hippocampal slices
Set-up: species or system rodent
Description: CA1 pyramidal neurons were exposed to 1 μM cPAF or vehicle for 30-60min and simultaneously imaged and recorded by whole-cell patch clamp before and after delivery of a high-frequency stimulus (HFS: three 1s, 100 Hz trains, every 20 s) applied to Schaffer collateral axons via a bipolar stimulating electrode planted in the stratum radiatum. (A) Dendrite beading in a cPAF-exposed cell 45min after HFS, with no disruption of dendrite or spine morphology in control cells. […] (C) Excitatory synaptic transmission between Shaffer collateral axons and CA1 pyramidal neurons is strongly potentiated following HFS in control slices. […] (EPSP traces at baseline and 40 min from representative control cell and cPAF-treated beaded cell are at right.) […]
Explant hippocampal slices are exposed to HIV-1 neurotoxins±agents that reverse mitochondrial hyperpolarization. Beading and LTP are then be measured:
Hippocampal slice preparation: Brains from anesthetized P14-28 rodents are rapidly removed and cooled in sucrose based artificial cerebrospinal fluid (ACSF) containing in mM: 110 sucrose, 60 NaCl, 3 KCl, 1.25 NaH2PO4, 28 NaHCO3, 10 D-glucose, 0.5 CaCl2, 7 MgSO4, 0.6 ascorbate. The brains are blocked and fixed to a specimen stage with cyanoacrylate. Coronal slices (250-400 μm in thickness) are cut with a vibroslicer (World Precision Instruments, Fla., USA) equipped with a Peltier cooling system. The middle four to six slices of each hippocampus (with the entorhinal cortex removed) are placed into a holding chamber prior to use.
Measuring dendritic beading and postsynaptic potentials in single CA1 cells in hippocampal slices: Dendritic arbors of individual CA1 pyramidal cells are imaged while simultaneously recording excitatory postsynaptic potentials in the same cell by patch clamp recordings in whole-cell configuration. Recording pipettes ([…] resistance) are pulled from 1.5 mm borosilicate glass using a horizontal Flaming/Brown micropipette puller (Sutter Instrument Co, Calif.), fire-polished, and filled with intracellular recording solution (in mM: KCl 20, potassium gluconate 130, EGTA 0.5, HEPES 10, MgSO4 2, ATP 2.5, GTP 0.5, pH 7.3). In order to visualize dendrites of the recorded cell, Alexa 568 hydrazide (30 μM) is included in the recording pipette and is injected by small negative current pulses for 15-20 min prior to recording in order to fill the dendritic arbor. Hippocampal slices are bathed in artificial CSF (containing, in mM: NaCl 125, KCl 2.5, NaH2PO4 1.25, NaHCO3 25, CaCl2 2, MgCl2 1, D-glucose 25, oxygenated and buffered with 5% CO2). Membrane potentials of CA1 pyramidal cells are recorded in current clamp mode, and postsynaptic potentials are evoked by test pulses of constant-current stimulation applied via a bipolar stimulating electrode placed 50-200 μm away in the stratum radiatum. Bicuculline (10 μM) is included in the bath to isolate excitatory postsynaptic potentials. After at least 10 min of consistent baseline recording, a high-frequency LTP induction stimulus (HFS, consisting of four 1 s, 100 Hz trains delivered every 15 s) is applied. EPSPs are recorded for 60 min following HFS. At the same time, dendrites are imaged at 40× magnification by fluorescence microscopy, using a shutter to limit fluorescent light exposure and prevent phototoxic injury to the slice. Serial images of dendrites are compared to detect development of focal swellings along dendritic shafts following HFS. Cells are scored as beaded if swellings develop along any of their dendrites.
Field potential recording and induction of LTP in hippocampal slices: Single-cell recordings are complemented by extracellular field potential recordings: while single cell recordings allow correlation of electrophysiologic data with dendritic beading in the same cell, extracellular recordings sample responses from populations of dendrites and are less invasive. […]

[1] = HIV-1 neurotoxin with vehicle treatment

CCCCCCCCCCCCCCCCOC[C@H](COP(=O)([O-])OCC[N+](C)(C)C)OC(=O)NC [PAF, carbamyl-platelet-activating factor]
cells with beading elicited by HFS (1 μM cPAF, 30-60 min): half of the cells | potentiation of EPSPs after HFS, cells that did not develop dendrite beading (1 μM cPAF, 30-60 min): smaller potentiation | potentiation of EPSPs after HFS, cells whose dendrites did bead (1 μM cPAF, 30-60 min): failure of long-term potentiation; also recorded: not potentiated at all | Beading Prediction [1]: Occurs | LTP Prediction [1]: Failure | Δψm [1]: Hyperpolarized
